The target of assay [1] is human emopamil binding protein and human 7-dehydrocholesterol reductase co-expressing cell membrane (Homo sapiens (Human), UniProt Q15125). The assay can be described thus: hEBP-DHCR7 radioligand filtration binding assay with [3H]-Compound 118A*. The following applies: radioligand [3H]-Compound 118A*; HEK293 membrane co-expressing hEBP and DHCR7. The protocol: Membrane Preparation: human emopamil binding protein and human 7-dehydrocholesterol reductase co-expressing cells were generated by transient transfecting host human embryonic kidney (HEK) 293 cells with 2 DNA constructs containing each protein's coding sequence. Cells were suspension cultured at 37° C. with 5% CO2 in […] 293 Expression Medium (Thermofisher). Whole cell membrane was prepared by harvesting the cell pellet, adding cold membrane buffer (50 mM Tris, pH7.5, 1× Roche COMPLETE EDTA-free protease inhibitor cocktail) 10 times volume of the cell pellets weight, lysing cell pellet on ice by using Dounce homogenizer, spinning at 200 g 4° C. for 15 min, collecting supernatant and spinning again at 25000 g 4° C. for 50 min, transferring pellet to Dounce homogenizer, re-suspending pellet by homogenizing in membrane buffer on ice to reach ˜25 mg/mL, then keeping whole cell membrane aliquots at −80° C.
Compounds were prepared in a 96-well U bottom plate using an Echo550 machine and 10 mM compound DMSO stock solution, followed by an 8-dose 5-fold serial dilutions protocol with final testing compound concentration ranging from 0.06 to 5000 nM, with DMSO back fill to 100 nL/well and n=2. […] The UniFilter-96 GF/B plates were pre-treated by adding 50 μl/well of 0.3% (v/v) PEI to UniFilter-96 GF/B plates. The plates were sealed and incubated at 4° C. for 3 hrs. Then, the plates were washed with ice-cold assay buffer 3 times. The radioligand binding assay was prepared by adding assay buffer diluted hEBP-DHCR7 membrane at 66.7 μg/ml x 150 μl/well into the 96-well compound plate to reach 10 μg membrane per well. Then, the assay buffer diluted [3H]-Compound 118A* was added at 25 nM×50 μl/well. Following this, the plate was centrifuged at 1000 rpm for 30 secs. The plate was then sealed and agitated at 600 rpm at 22° C. for 5 min, and then incubated at 22° C. for 3 hrs. The incubation was stopped by transferring the binding solution to the pre-treated UniFilter-96 GF/B plate, vacuum filtrated, and then washed four times with ice-cold assay buffer. Following this, the plates were dried at 37° C. for 45 min. The plates were then sealed at the bottom. 40 μl/well of scintillation cocktail was added to the plates. A MicroBeta2 microplate counter was then used to read the plate and analyze the data. For reference and test compounds, the results are expressed as % Inhibition, using the normalization equation: N=100-100×(U−C2)/(C1−C2), where U is the unknown value, C1 is the average of high controls, and C2 is the average value of low controls. The IC50 was determined by fitting percentage of inhibition as a function of compound concentrations with Hill equation using XLfit. Results are expressed as hEBP-DHCR7 Ki (uM) in Table 4. Ki was calculated as described above.

Assay [2] relates to zymostenol accumulation in EpiSC-derived OPCs (EBP). The assay can be described thus: GC/MS-based sterol profiling, zymostenol accumulation. The class given is cell-based, mouse. The conditions noted are these: Mus musculus, 24 h, 8 doses from 0.15 nM to 333 nM, read-out: mZymo GCMS EC50. Here is the method:
(§1) To assess effects of treatments on OPCs, all treatments were assayed in two or more independent platings of epiblast stem cell-derived OPCs (EpiSC). EpiSC-derived OPCs were obtained using in vitro differentiation protocols and culture conditions described previously (Najm et al, 2011, Nature Methods). OPCs were expanded and frozen down in aliquots. OPCs were thawed into growth conditions for at least one passage before use in further assays.
Sterols were monitored using a modified Folch wash protocol (Hubler et al, 2018, Nature). EpiSC-derived OPCs were plated at 100,000 cells per well in PO— and laminin-coated 96-well plates in N2B27 media without growth factors. After 24 hours, cells were rinsed with saline and plates were frozen. Cholesterol-d7 standard was then added to each well before drying under nitrogen stream and derivatization with 55 μl of bis(trimethylsilyl) trifluoroacetamide. After derivatization, 2 μl were analyzed by gas chromatography/mass spectrometry using an Agilent 5973 Network Mass Selective Detector equipped with a 6890 gas chromatograph system and a HP-5MS capillary column (30 m x 0.25 mm×[…]). Samples were analyzed in full scan mode using electron impact ionization; ion fragment peaks were integrated to calculate sterol abundance, and quantitation was relative to cholesterol-d7. The following ion fragments were used to quantitate each metabolite: cholesterol-d7 (465), FF-Mas (482), cholesterol (368), zymostenol (458), zymosterol (456), Desmosterol (456, 343), 7-dehydrocholesterol (456, 325), lanosterol (393), lathosterol (458), 14-dehydrozymostenol (456, 351). […] All standards were obtained from Avanti Polar Lipids unless otherwise indicated. Calibration curves were generated by injecting varying concentrations of sterol standards and maintaining a fixed amount of cholesterol-D7. For normalized zymostenol accumulation results, the total amount of zymostenol measured after drug treatment was divided by the total amount of zymostenol accumulated after 24 hr treatment with 100 nM positive control reference.

In assay [3] the test system is EpiSC-derived OPCs. The experiment in a line: In vitro phenotypic screening of OPCs, MBP high-content imaging. It is filed as cell-based, mouse. The conditions noted are these: Mus musculus, 72 h, percentage of MBP+ oligodendrocytes; 3 days; 0.5 nM to 1000 nM; read-out: mOPC EC50. The protocol: as §1
EpiSC-derived OPCs were grown and expanded in poly-L-ornithine (PO) and laminin-coated flasks in N2B27 media (DMEM/F12 (Gibco), N2-MAX (R&D Systems), B-27 (ThermoFisher), and GlutaMax (Gibco)) supplemented with FGF2 ([…], R&D systems, 233-FB-025) and PDGF-AA ([…], R&D systems, 233-AA-050) before harvesting for experiments. The cells were seeded onto poly-L-ornithine or poly-D-lysine coated CellCarrier Ultra plates (PerkinElmer) coated with laminin (Sigma, L2020) at a density of 150,000/cm^2 in N2B27 media without growth factors. For dose-response testing, a 1000× compound stock in dimethyl sulphoxide (DMSO) was added to assay plates, resulting in 8-point dose curves with final concentrations between 1000 nM and 0.5 nM. Positive controls and DMSO vehicle controls were included in each assay plate. Cells were incubated under standard conditions (37° C., 5% CO2) for 3 days and fixed with 4% paraformaldehyde (PFA) in phosphate buffered saline (PBS) for 20 min. Fixed plates were washed with PBS, permeabilized with 0.1% Triton X-100, and blocked with 10% donkey serum (v/v) in PBS for 40 min. Then, cells were labelled with MBP antibodies (Abcam, ab7349; 1:200) for 2 h at room temperature, washed with PBS, and stained with Alexa Fluor conjugated secondary antibodies (1:500) for 45 min. Nuclei were visualized by DAPI staining (Sigma; 1 μg/ml), followed by further PBS washes.
Cells and cell culture plates were imaged on the Operetta High Content Imaging and Analysis system (PerkinElmer). Analysis (PerkinElmer Harmony and Columbus software) began by identifying intact nuclei stained by DAPI. The peri-nuclear region of each cell was then cross-referenced with the mature myelin protein (MBP) stain to identify oligodendrocyte nuclei, and from this the percentage of oligodendrocytes was calculated. EC50 values were calculated using The Levenberg-Marquardt algorithm to fit a Hill equation to dose-response data (0.5 nM to 1000 nM).

The values below come from patent US20240400579A1, “SPIROCYCLIC MODULATORS OF CHOLESTEROL BIOSYNTHESIS AND THEIR USE FOR PROMOTING REMYELINATION” (GENENTECH, INC., priority 2021, published 2024).

SMILES strings stand for the structures.

Broadly, the Ki is a measure of affinity in units of concentration, obtained from inhibition or displacement. Broadly, the EC50 is the concentration needed to bring the measured effect to its halfway point.

Sequence of human emopamil binding protein and human 7-dehydrocholesterol reductase co-expressing cell membrane (Q15125 whole entry): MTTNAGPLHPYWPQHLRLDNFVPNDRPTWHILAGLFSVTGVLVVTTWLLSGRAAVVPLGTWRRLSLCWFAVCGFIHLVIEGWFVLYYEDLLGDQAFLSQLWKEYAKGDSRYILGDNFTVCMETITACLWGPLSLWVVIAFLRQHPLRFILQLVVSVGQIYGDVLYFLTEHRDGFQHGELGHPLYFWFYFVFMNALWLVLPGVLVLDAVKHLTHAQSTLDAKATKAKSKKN

The compound `C[C@@H](CN1CCC2(CC1)CS(=O)(=O)C2)Oc1ccc(C(F)(F)F)cc1` (single isomer, unassigned) [227A*] showed a Ki in assay [1] of 15.3 nM. For the same compound, the EC50 in assay [2] amounted to 3.2 nM; in assay [3] it was 7.6 nM.
Turning to `O=S1(=O)CC2(CCN(CCOc3ccc(-c4ccc(C(F)(F)F)nc4)nc3)CC2)C1` [Compound 241, 7-[2-[[6-[6-(Trifluoromethyl)-3-pyridyl]-3-pyridyl]oxy]ethyl]-26-thia-7-azaspiro[3.5]nonane 2,2-dioxide], affinity in assay [1] was put at a Ki of 69 nM. Besides, the concentration for a half-maximal effect (EC50) in assay [2] was determined as 14.9 nM.
In the same order, the values of `Cc1nc(C(F)(F)F)ccc1OCCN1CCC2(CC1)CS(=O)(=O)C2` [Compound 243, 7-[2-[[2-Methyl-6-(trifluoromethyl)-3-pyridyl]oxy]ethyl]-26-thia-7-azaspiro[3.5]nonane 2,2-dioxide] are 53 nM and 6.61 nM.
As to `C[C@@H](Cc1ccc(C2CCC(F)(F)CC2)c(Cl)c1)CN1CCC2(C1)CS(=O)(=O)C2` (single isomer, unassigned) [117A*], the affinity in assay [1] corresponds to a Ki of 9.43 nM. The EC50 in assay [3] was determined as 1.5 nM.
In the case of `O=S1(=O)CC2(CCN(CCOc3ccc([C@H]4CC[C@@H](C(F)(F)F)CC4)nc3)CC2)C1` [247B*, 7-(2-((6-((cis)-4-(trifluoromethyl)cyclohexyl)pyridin-3-yl)oxy)ethyl)-2-thia-7-azaspiro[3.5]nonane 2,2-dioxide], the Ki in assay [1] came to 8.97 nM. For the same compound, the EC50 in assay [2] turned out to be 68.6 nM.
`O=S1(=O)CC2(CCN(CCOc3ccnc([C@H]4CC[C@@H](C(F)(F)F)CC4)c3)CC2)C1` [245A*, 7-(2-((2-((cis)-4-(Trifluoromethyl)cyclohexyl)pyridin-4-yl)oxy)ethyl)-2-thia-7-azaspiro[3.5]nonane 2,2-dioxide]: the inhibitory constant (Ki) in assay [1] turned out to be 16 nM. Also, in assay [2], the EC50 was found to be 10.5 nM.
`CC(C)(CN1CCC2(CC1)CS(=O)(=O)C2)Oc1ccc(F)c(F)c1` [Example 156, 7-(2-(3,4-Difluorophenoxy)-2-methylpropyl)-2-thia-7-azaspiro[3.5]nonane 2,2-dioxide] showed a Ki in assay [1] of 13.9 nM. Also, the half-maximal effective concentration (EC50) in assay [2] was 1.5 nM.
In the same order, the values of `O=S1(=O)CC2(CCN(CCOc3cnc(C4CCCCC4)c(C(F)(F)F)c3)CC2)C1` [Compound 244, 7-(2-((6-Cyclohexyl-5-(trifluoromethyl)pyridin-3-yl)oxy)ethyl)-2-thia-7-azaspiro[3.5]nonane 2,2-dioxide] are 10.7 nM and 23.5 nM.
For `C[C@H](Cc1ccc(C2(C)CC2)cc1)CN1CCC2(C1)CS(=O)(=O)C2` (single isomer, unassigned) [111B*], the concentration giving a half-maximal response (EC50) amounted to 1.4 nM in assay [2] and 1.5 nM in assay [3].
Turning to `O=S1(=O)CC2(CCN(CCOc3cnc(C(F)(F)F)c(Cl)c3)CC2)C1` [Compound 242, 7-[2-[[5-Chloro-6-(trifluoromethyl)-3-pyridyl]oxy]ethyl]-26-thia-7-azaspiro[3.5]nonane 2,2-dioxide], the figures for the EC50 in assay [2] and in assay [3] were 4.51 nM and 16.3 nM, respectively.
For `O=S1(=O)CC2(CCN(CCCc3ccc(C(F)(F)F)cc3)C2)C1` [Compound 113, 6-(3-(4-(Trifluoromethyl)phenyl)propyl)-2-thia-6-azaspiro[3.4]octane-2,2-dioxide] the same measures were 0.41 nM and 18 nM.
Regarding `C[C@@H](CN1CCC2(CC1)CS(=O)(=O)C2)Oc1ccc(C(F)(F)F)nc1` (single isomer, unassigned) [Example 207A*], the Ki in assay [1] stood at 33.6 nM. In addition, in assay [2], the EC50 came to 31 nM.
As to `CC(Cc1ccc(C(F)(F)F)cc1)CN1CCC2(C1)CS(=O)(=O)C2` (stereo not shown) [Compound 104, 6-(2-Methyl-3-(4-(trifluoromethyl)phenyl)propyl)-2-thia-6-azaspiro[3.4]octane 2,2-dioxide], the values for the 50% effective concentration (EC50) in assay [2] and in assay [3] were 0.48 nM and 1.7 nM, respectively.
For `CC(C)(Cc1ccc(C(F)(F)F)cc1)CN1CCC2(C1)CS(=O)(=O)C2` [Example 125, 6-(2,2-Dimethyl-3-(4-(trifluoromethyl)phenyl)propyl)-2-thia-6-azaspiro[3.4]octane-2,2-dioxide] the same measures were 0.62 nM and 0.72 nM.
Compound `O=S1(=O)CC2(CCN(CCOc3ccnc([C@H]4CC[C@H](C(F)(F)F)CC4)c3)CC2)C1` [245B*, 7-(2-((2-((trans)-4-(trifluoromethyl)cyclohexyl)pyridin-4-yl)oxy)ethyl)-2-thia-7-azaspiro[3.5]nonane 2,2-dioxide] had a Ki in assay [1] of 19.7 nM. Also, the half-maximal effective concentration (EC50) in assay [2] came out at 8.37 nM.
For `CC(C)(CN1CCC2(CC1)CS(=O)(=O)C2)Oc1ccc(F)c(C(F)(F)F)c1` [Compound 220, 7-(2-(4-Fluoro-3-(trifluoromethyl)phenoxy)-2-methylpropyl)-2-thia-7-azaspiro[3.5]nonane 2,2-dioxide] the same measures were 11.9 nM and 0.97 nM.
Take `C[C@@H](Cc1ccc(C2(C)CC2)cc1)CN1CCC2(C1)CS(=O)(=O)C2` (single isomer, unassigned) [111C*]: the EC50 is 7.1 nM in assay [2] and 6.1 nM in assay [3].
In assay [1], `C[C@H](Cc1ccc(C(F)(F)F)nc1)CN1CC2(CCS(=O)(=O)CC2)C1` (single isomer, unassigned) [234A*] registered an inhibitory constant (Ki) of 250 nM. For the same compound, the EC50 in assay [2] was 49 nM.
